The supplement of paper PMC10307832

Key:
Test in all cases: relative viability (nuclei count vs DMSO), 5 days (fraction); higher = more cells survive
Trametinib + Pictilisib = compound: CC(=O)Nc1cccc(-n2c(=O)n(C3CC3)c(=O)c3c(Nc4ccc(I)cc4F)n(C)c(=O)c(C)c32)c1 [Trametinib] + CS(=O)(=O)N1CCN(Cc2cc3nc(-c4cccc5[nH]ncc45)nc(N4CCOCC4)c3s2)CC1 [Pictilisib] (partner 1 µM)
Procedure, shortened: (§1)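 Relative viability divides the nuclei count in treated wells by that in vehicle wells. Lung cancer cell lines were seeded in 1536-well plates, dosed by pin tool the next day, and fixed and stained after 5 days in one step with final 0.05% Triton X-100, 1% formaldehyde and 1 ug/ml Hoechst. Dosing was a single drug or a fixed anchor-drug dose plus five library-drug doses (not always all listed) in √10 steps, and values are medians of duplicate plates imaged at 4×.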

Trametinib + Vorinostat = compound: CC(=O)Nc1cccc(-n2c(=O)n(C3CC3)c(=O)c3c(Nc4ccc(I)cc4F)n(C)c(=O)c(C)c32)c1 [Trametinib] + O=C(CCCCCCC(=O)Nc1ccccc1)NO [Vorinostat] (partner 1 µM)
Procedure, shortened: as §1

[1] = compound: CN1C=C(C2=CC=CC=C21)/C=C\3/C4=C(C=CC=N4)NC3=O + CC(=O)c1c(C)c2cnc(Nc3ccc(N4CCNCC4)cn3)nc2n(C2CCCC2)c1=O [Palbociclib] (partner 0.5 µM)
Procedure, shortened: as §1

[2] = compound: CN1C=C(C2=CC=CC=C21)/C=C\3/C4=C(C=CC=N4)NC3=O + C[C@]1(O)C[C@@H](c2nc(-c3ccc4ccc(-c5ccccc5)nc4c3)c3c(N)nccn32)C1 [Linsitinib] (partner 1 µM)
Procedure, shortened: as §1

Cell Line | relative viability (Trametinib + Pictilisib; first compound 0.0025 µM) | relative viability (Trametinib + Pictilisib; first compound 0.007906 µM) | relative viability (Trametinib + Pictilisib; first compound 0.025 µM) | relative viability (Trametinib + Pictilisib; first compound 0.07906 µM) | relative viability (Trametinib + Pictilisib; first compound 0.25 µM) | relative viability (Trametinib + Vorinostat; first compound 0.0025 µM) | relative viability (Trametinib + Vorinostat; first compound 0.007906 µM) | relative viability (Trametinib + Vorinostat; first compound 0.025 µM) | relative viability (Trametinib + Vorinostat; first compound 0.07906 µM) | relative viability (Trametinib + Vorinostat; first compound 0.25 µM) | relative viability ([1]; first compound 0.02 µM) | relative viability ([1]; first compound 0.06325 µM) | relative viability ([1]; first compound 0.6325 µM) | relative viability ([1]; first compound 2 µM) | relative viability ([2]; first compound 0.02 µM) | relative viability ([2]; first compound 0.06325 µM) | relative viability ([2]; first compound 0.6325 µM) | relative viability ([2]; first compound 2 µM) | relative viability ([1]; first compound 0.2 µM) | relative viability ([2]; first compound 0.2 µM)
EPLC-272H | 0.268 | 0.221 | 0.175 | 0.174 | 0.0951 | 0.455 | 0.368 | 0.233 | 0.148 | 0.162 | 0.331 | 0.271 | 0.336 | 0.274 | 1.54 | 1.12 | 1.31 | 1.23 | – | –
SK-LU-1 | 0.535 | 0.399 | 0.251 | 0.278 | 0.256 | 0.753 | 0.748 | 0.657 | 0.52 | 0.381 | 0.282 | 0.367 | 0.342 | 0.399 | 0.838 | 0.894 | 1.09 | 1.14 | 0.369 | 1.15
NCI-H358 | 0.311 | 0.328 | 0.233 | 0.22 | 0.363 | 0.367 | 0.27 | 0.266 | 0.205 | 0.154 | 0.147 | 0.152 | 0.13 | 0.138 | 0.632 | 0.643 | 0.795 | 0.686 | 0.123 | 0.881
ABC-1 | 0.552 | 0.56 | 0.363 | 0.458 | 0.28 | 0.798 | 0.898 | 0.562 | 0.613 | 0.349 | 0.52 | 0.76 | 0.593 | 0.738 | 0.797 | 0.704 | 0.729 | 0.712 | 0.789 | 0.604
NCI-H1395 | 0.607 | 0.631 | 0.576 | 0.453 | 0.65 | 0.78 | 0.627 | 0.593 | 0.415 | 0.384 | 0.567 | 0.534 | 0.618 | 0.581 | 0.977 | 1.11 | 1.15 | 0.945 | 0.581 | –
NCI-H2085 | 0.412 | 0.353 | 0.418 | 0.327 | 0.32 | 0.695 | 0.718 | 0.501 | 0.609 | 0.563 | 0.452 | 0.473 | 0.471 | 0.461 | 0.867 | 0.825 | 0.866 | 1.02 | 0.508 | 0.867
NCI-H2087 | 0.846 | 0.344 | 0.26 | 0.237 | 0.382 | 0.595 | 0.368 | 0.463 | 0.237 | 0.12 | 0.243 | 0.178 | 0.199 | 0.237 | 0.82 | 0.708 | 0.944 | 1.23 | 0.229 | 1.02
NCI-H322M | 0.522 | 0.486 | 0.35 | 0.344 | 0.336 | 0.797 | 0.691 | 0.62 | 0.557 | 0.555 | 0.451 | 0.458 | 0.498 | 0.5 | 1.01 | 0.993 | 0.819 | 0.862 | 0.487 | 0.874
NCI-H1734 | 0.439 | 0.448 | – | 0.362 | 0.299 | 0.812 | 0.802 | – | 0.747 | 0.356 | 0.316 | 0.372 | 0.334 | 0.345 | 0.803 | 0.853 | 1.09 | 0.889 | – | –
NCI-H2228 | 0.281 | 0.232 | 0.184 | 0.171 | 0.199 | 0.673 | 0.87 | 0.766 | 0.426 | 0.309 | 0.744 | 0.572 | 0.769 | 0.906 | 0.53 | 0.463 | 0.603 | 0.759 | 0.394 | –
EKVX | 0.363 | 0.318 | 0.228 | 0.214 | 0.193 | 0.63 | 0.442 | 0.365 | 0.405 | 0.321 | 0.323 | – | 0.273 | 0.732 | 0.911 | 0.926 | 0.729 | 0.883 | – | 0.921
NCI-H1975 | 0.252 | 0.199 | 0.137 | 0.162 | 0.179 | 0.643 | 0.542 | 0.48 | 0.456 | 0.351 | 0.623 | 0.361 | 0.442 | 0.504 | 0.921 | 1.04 | 0.694 | 0.661 | 0.45 | 0.982
NCI-H1666 | 0.267 | 0.371 | 0.276 | 0.255 | 0.244 | 0.989 | 0.946 | 0.871 | 0.861 | 0.713 | 0.604 | 0.62 | 0.574 | 0.632 | 0.85 | 0.712 | 0.748 | 0.665 | 0.634 | 0.79
PC-3 [JPC-3] | 0.765 | 0.474 | 0.484 | 0.438 | 0.44 | 0.82 | 0.722 | 0.557 | – | 0.53 | 0.535 | 0.521 | 0.562 | 0.515 | 0.947 | 0.902 | 0.889 | 0.917 | 0.545 | 0.974
NCI-H1755 | 0.396 | 0.348 | 0.248 | 0.331 | 0.228 | 0.829 | 0.698 | 0.686 | 0.735 | 0.747 | 0.434 | 0.463 | 0.433 | 0.427 | 0.95 | 1.01 | 0.968 | 0.991 | 0.431 | 0.967
RERF-LC-KJ | 0.417 | 0.449 | 0.503 | 0.494 | 0.458 | 0.549 | 0.621 | 0.6 | 0.569 | 0.472 | 0.937 | 1.07 | 0.963 | 1.12 | 0.886 | 0.935 | 0.813 | 0.84 | 0.988 | 0.929
NCI-H647 | 0.348 | 0.301 | 0.235 | 0.206 | 0.127 | 0.634 | 0.562 | 0.642 | 0.465 | 0.196 | 0.367 | 0.354 | 0.37 | 0.348 | 0.933 | 0.922 | 1.2 | 1.1 | 0.292 | 0.896
BEN | 0.487 | 0.472 | – | 0.419 | 0.426 | 0.62 | 0.57 | 0.49 | 0.57 | 0.624 | 0.453 | 0.409 | 0.48 | 0.49 | 0.847 | 0.996 | 0.875 | 1.03 | 0.465 | 0.823
201T | 0.653 | 0.625 | 0.542 | 0.71 | 0.615 | 0.945 | 0.833 | 0.736 | 0.732 | 0.785 | 0.321 | 0.359 | 0.35 | 0.323 | 0.993 | 1.05 | 1.09 | 0.786 | 0.377 | 0.967
LC-2-ad | 0.412 | 0.444 | 0.237 | 0.216 | 0.195 | 0.648 | 0.665 | 0.663 | 0.547 | 0.472 | 0.527 | 0.468 | 0.462 | 0.47 | 0.743 | 0.83 | 0.864 | 0.765 | 0.506 | 0.766
LCLC-97TM1 | 0.141 | 0.135 | 0.11 | 0.128 | 0.0971 | 0.722 | 0.701 | 0.435 | 0.225 | 0.0816 | – | 0.156 | 0.203 | 0.261 | 0.164 | – | 0.203 | 0.179 | 0.201 | –
NCI-H1915 | 0.963 | 0.466 | 0.317 | 0.287 | 0.24 | 0.558 | 0.575 | 0.466 | 0.368 | 0.289 | 0.489 | 0.511 | 0.598 | 0.721 | 1.07 | 1.1 | 1.12 | 1.06 | 0.533 | 1.08
NCI-H3122 | 0.287 | 0.24 | 0.197 | 0.189 | 0.175 | 0.978 | 0.678 | 0.204 | 0.361 | 0.518 | 0.137 | 0.181 | 0.183 | 0.235 | 0.895 | 0.972 | 1.06 | 1.04 | 0.202 | 1.01
NCI-H1993 | 0.864 | 0.913 | 0.792 | 0.806 | 0.897 | 0.681 | 0.553 | 0.339 | 0.576 | 0.304 | 0.606 | 0.594 | 0.455 | 1.19 | 0.539 | 0.635 | 0.765 | 0.621 | 0.656 | 0.71
NCI-H2405 | 0.298 | 0.251 | 0.257 | 0.204 | 0.236 | 0.985 | 0.853 | 0.649 | – | 0.601 | 0.576 | 0.526 | 0.535 | 0.541 | 0.871 | 0.912 | 0.954 | 0.816 | 0.524 | 0.783
NCI-H661 | 0.377 | 0.426 | 0.222 | 0.273 | 0.257 | 0.742 | 0.753 | 0.782 | 0.782 | 0.724 | 0.425 | 0.406 | 0.389 | 0.37 | 0.689 | 0.536 | 0.486 | 0.559 | 0.343 | 0.578
